# Where two headings read alike, the source gives them in different places.
# Legend:
# Lactobacillus reuteri = test: MIC against gut bacterium Lactobacillus reuteri; format: cell-based; settings: Limosilactobacillus reuteri; Lactobacillus reuteri strain HM-102; Table 7; read-out: MIC
# Corynebacterium spp. = test: MIC against gut bacterium Corynebacterium spp.; format: cell-based; settings: Corynebacterium, Corynebacterium spp. strain HM-784; Table 7
# C. difficile = test: MIC by broth microdilution against C. difficile strains; format: cell-based, Clostridioides difficile; settings: for MIC: Clostridioides difficile
# Lactobacillus gasseri = test: MIC against gut bacterium Lactobacillus gasseri; format: cell-based; settings: Lactobacillus gasseri strain HM-644; Table 7; read-out: MIC
# Bacteroides fragilis = test: MIC against gut bacterium Bacteroides fragilis; format: cell-based; settings: Bacteroides fragilis, Bacteroides fragilis strain HM-709; Table 7; read-out: MIC
# S. aureus ATCC29213 = test: MIC against MSSA; format: cell-based, Staphylococcus aureus; settings: Staphylococcus aureus; MSSA ATCC 29213; Table 10, unit inferred; read-out: Activity (MIC) against S. aureus
# HeLa cells = test: XTT cytotoxicity assay with HeLa cells; format: cell-based; settings: Homo sapiens, Table 6
# Method: XTT assay. Cytotoxicity assays were performed in triplicate against HeLa cells (ATCC CCL-2). The IC50 values were calculated by nonlinear regression with GraphPad Prism 5 (San Diego, Calif.).
# XTT assay. XTT assays were performed with HeLa cells (ATCC CCL-2) in triplicate, as previously described (Lancet 2008, 371, 1486). IC50 values were determined by nonlinear regression using GraphPad Prism 5 (San Diego, Calif.).
# MRSA (NRS70, NRS119) = test: MIC against MRSA strains; format: cell-based, Staphylococcus aureus; settings: Staphylococcus aureus
# E. faecium NCTC7171 = test: MIC against E. faecium; format: cell-based, Enterococcus faecium; settings: Enterococcus faecium, NCTC7171; E. faecium NCTC 7171; Table 10, unit inferred; read-out: Activity (MIC) against E. faecium
# Bifidobacterium longum = test: MIC against gut bacterium Bifidobacterium longum; format: cell-based; settings: Bifidobacterium longum, Bifidobacterium longum strain HM-846; Table 7; read-out: MIC
# Eubacterium sp. = test: MIC against gut bacterium Eubacterium sp.; format: cell-based; settings: Eubacterium, Eubacterium sp. strain HM-178; Table 7; read-out: MIC
# Fusobacterium nucleatum = test: MIC against gut bacterium Fusobacterium nucleatum; format: cell-based; settings: Fusobacterium nucleatum, Fusobacterium nucleatum strain HM-992; Table 7; read-out: MIC
# Veillonella sp. HM-49 = test: MIC against gut bacterium Veillonella sp.; format: cell-based; settings: SP.HM49; Veillonella sp. strain HM-49; Table 7; read-out: MIC
# [1] = ATCC43255, ATCC 43255, ribotype 087, Table 3 (SAR^2 and SAR^3), read-out: MIC C. difficile
# [2] = ATCC43255, C. difficile ATCC43255, Table 7, read-out: MIC
# [3] = ATCC43255, C. difficile ATCC 43255, read-out: MIC against C. difficile
# [4] = ATCC43598, C. difficile ATCC43598, Table 7, read-out: MIC
# [5] = BAA1801, C. difficile BAA-1801, Table 7, read-out: MIC
# [6] = BAA1803, C. difficile BAA-1803, Table 7, read-out: MIC
# [7] = BAA1804, C. difficile BAA-1804, Table 7, read-out: MIC
# [8] = BAA1812, C. difficile BAA-1812, Table 7, read-out: MIC
# [9] = BAA1814, C. difficile BAA-1814, Table 7, read-out: MIC
# [10] = BAA1870, C. difficile BAA-1870, Table 7, read-out: MIC
# [11] = C. difficile 23691 (VR, vancomycin-resistant), Table 7, read-out: MIC
# [12] = C. difficile 23828 (FR, fidaxomicin-resistant), Table 7, read-out: MIC
# [13] = C. difficile 24531 (VR, vancomycin-resistant), Table 7, read-out: MIC
# [14] = C. difficile 24923 (VR, vancomycin-resistant), Table 7, read-out: MIC
# [15] = C. difficile 26675 (MR, metronidazole-resistant), Table 7, read-out: MIC
# [16] = C. difficile 27081 (FR, fidaxomicin-resistant), Table 7, read-out: MIC
# [17] = C. difficile 27173 (MR, metronidazole-resistant), Table 7, read-out: MIC
# [18] = C. difficile NR49292, Table 7, read-out: MIC
# [19] = C. difficile NR49294, Table 7, read-out: MIC
# [20] = C. difficile NR49302, Table 7, read-out: MIC
# [21] = C. difficile NR49305, Table 7, read-out: MIC
# [22] = C. difficile NR49310, Table 7, read-out: MIC
# [23] = C. difficile NR49318, Table 7, read-out: MIC
# [24] = C. difficile, Table 8, read-out: MIC
# [25] = MIC MRSA NRS70/MIC C. difficile ATCC43255, Table 7
# [26] = MIC MRSA/MIC C. difficile, Table 3
# [27] = MRSA NRS70, Table 7, read-out: MIC
# [28] = NRS70 strain, Table 3 (SAR^2 and SAR^3), read-out: MIC MRSA
structure (smiles),measurement,setting,value
"O=C(Nc1ncco1)c1ccnc(-c2ccc(Cl)c(Cl)c2)c1 [Compound 4, 2-(3,4-Dichlorophenyl)-N-(oxazol-2-yl)isonicotinamide]",MIC,Lactobacillus reuteri,8 µg/mL
same,MIC,Corynebacterium spp.,0.5 µg/mL
same,MIC,"C. difficile; ATCC43255, ATCC 43255, ribotype 087, Table 2 (SAR^1), read-out: MIC C. difficile",0.25 µg/mL
same,MIC,C. difficile; [1],0.25 µg/mL
same,MIC,C. difficile; [2],0.25 µg/mL
same,MIC,C. difficile; [3],0.25 µg/mL
same,MIC,C. difficile; [4],0.0625 µg/mL
same,MIC,C. difficile; [5],0.25 µg/mL
same,MIC,C. difficile; [6],0.5 µg/mL
same,MIC,C. difficile; [7],0.0625 µg/mL
same,MIC,C. difficile; [8],0.125 µg/mL
same,MIC,C. difficile; [9],0.125 µg/mL
same,MIC,C. difficile; [10],≤ 0.25 µg/mL
same,MIC,C. difficile; [11],0.25 µg/mL
same,MIC,C. difficile; [12],0.125 µg/mL
same,MIC,C. difficile; [13],0.125 µg/mL
same,MIC,C. difficile; [14],0.125 µg/mL
same,MIC,C. difficile; [15],0.25 µg/mL
same,MIC,C. difficile; [16],0.125 µg/mL
same,MIC,C. difficile; [17],0.125 µg/mL
same,MIC,C. difficile; [18],0.125 µg/mL
same,MIC,C. difficile; [19],0.0625 µg/mL
same,MIC,C. difficile; [20],0.0625 µg/mL
same,MIC,C. difficile; [21],0.125 µg/mL
same,MIC,C. difficile; [22],0.0625 µg/mL
same,MIC,C. difficile; [23],0.125 µg/mL
same,MIC,C. difficile; [24],0.25 µg/mL
same,Selectivity,C. difficile; [25],1
same,Selectivity,C. difficile; [26],1
same,Selectivity,C. difficile; Table 8,1
same,MIC,Lactobacillus gasseri,> 16 µg/mL
same,MIC,Bacteroides fragilis,1 µg/mL
same,MIC,S. aureus ATCC29213,0.06 µg/mL
same,IC50,HeLa cells,79.9 ± 1 µg/mL
same,MIC,"MRSA (NRS70, NRS119); [27]",0.25 µg/mL
same,MIC,"MRSA (NRS70, NRS119); NRS70 strain, Table 2 (SAR^1), read-out: MIC MRSA",0.25 µg/mL
same,MIC,"MRSA (NRS70, NRS119); [28]",0.25 µg/mL
same,MIC,E. faecium NCTC7171,0.06 µg/mL
same,MIC,Bifidobacterium longum,> 16 µg/mL
same,MIC,Eubacterium sp.,> 16 µg/mL
same,MIC,Fusobacterium nucleatum,8 µg/mL
same,MIC,Veillonella sp. HM-49,4 µg/mL
"O=C(Nc1ncco1)c1cc(-c2ccc(Cl)c(Cl)c2)ccn1 [Compound 87, 4-(3,4-Dichlorophenyl)-N-(oxazol-2-yl)picolinamide]",MIC,Lactobacillus reuteri,4 µg/mL
same,MIC,Corynebacterium spp.,16 µg/mL
same,MIC,C. difficile; [1],0.125 µg/mL
same,MIC,C. difficile; [2],0.125 µg/mL
same,MIC,C. difficile; [3],0.125 µg/mL
same,MIC,C. difficile; [4],0.25 µg/mL
same,MIC,C. difficile; [5],0.25 µg/mL
same,MIC,C. difficile; [6],0.25 µg/mL
same,MIC,C. difficile; [7],0.125 µg/mL
same,MIC,C. difficile; [8],0.25 µg/mL
same,MIC,C. difficile; [9],0.125 µg/mL
same,MIC,C. difficile; [10],0.25 µg/mL
same,MIC,C. difficile; [11],0.5 µg/mL
same,MIC,C. difficile; [12],0.25 µg/mL
same,MIC,C. difficile; [13],0.25 µg/mL
same,MIC,C. difficile; [14],0.5 µg/mL
same,MIC,C. difficile; [15],0.5 µg/mL
same,MIC,C. difficile; [16],0.5 µg/mL
same,MIC,C. difficile; [17],0.5 µg/mL
same,MIC,C. difficile; [18],0.25 µg/mL
same,MIC,C. difficile; [19],0.25 µg/mL
same,MIC,C. difficile; [20],0.25 µg/mL
same,MIC,C. difficile; [21],0.25 µg/mL
same,MIC,C. difficile; [22],0.125 µg/mL
same,MIC,C. difficile; [23],0.25 µg/mL
same,MIC,C. difficile; [24],0.125 µg/mL
same,Selectivity,C. difficile; [25],1024
same,Selectivity,C. difficile; [26],1024
same,Selectivity,C. difficile; Table 8,1024
same,MIC,Lactobacillus gasseri,> 16 µg/mL
same,MIC,Bacteroides fragilis,4 µg/mL
same,MIC,S. aureus ATCC29213,≥ 128 µg/mL
same,IC50,HeLa cells,95.2 ± 1 µg/mL
same,MIC,"MRSA (NRS70, NRS119); [27]",128 µg/mL
same,MIC,"MRSA (NRS70, NRS119); MRSA strain NRS70, read-out: MIC against MRSA",128 µg/mL
same,MIC,"MRSA (NRS70, NRS119); [28]",128 µg/mL
same,MIC,E. faecium NCTC7171,≥ 128 µg/mL
same,MIC,Bifidobacterium longum,> 16 µg/mL
same,MIC,Eubacterium sp.,8 µg/mL
same,MIC,Fusobacterium nucleatum,8 µg/mL
same,MIC,Veillonella sp. HM-49,16 µg/mL
"O=C(Nc1ncco1)c1cc(Oc2cccc(OC(F)(F)F)c2)ccn1 [Compound 108, N-(Oxazol-2-yl)-4-(3-(trifluoromethoxy)phenoxy)picolinamide]",MIC,Lactobacillus reuteri,4 µg/mL
same,MIC,Corynebacterium spp.,> 16 µg/mL
same,MIC,C. difficile; [2],1 µg/mL
same,MIC,C. difficile; [4],0.5 µg/mL
same,MIC,C. difficile; [5],0.25 µg/mL
same,MIC,C. difficile; [6],0.5 µg/mL
same,MIC,C. difficile; [7],0.25 µg/mL
same,MIC,C. difficile; [8],1 µg/mL
same,MIC,C. difficile; [9],0.25 µg/mL
same,MIC,C. difficile; [10],0.5 µg/mL
same,MIC,C. difficile; [11],0.25 µg/mL
same,MIC,C. difficile; [12],1 µg/mL
same,MIC,C. difficile; [13],0.25 µg/mL
same,MIC,C. difficile; [14],0.25 µg/mL
same,MIC,C. difficile; [15],1 µg/mL
same,MIC,C. difficile; [16],0.25 µg/mL
same,MIC,C. difficile; [17],0.5 µg/mL
same,MIC,C. difficile; [18],0.25 µg/mL
same,MIC,C. difficile; [19],0.25 µg/mL
same,MIC,C. difficile; [20],1 µg/mL
same,MIC,C. difficile; [21],0.25 µg/mL
same,MIC,C. difficile; [22],0.5 µg/mL
same,MIC,C. difficile; [23],0.5 µg/mL
same,MIC,C. difficile; [24],1 µg/mL
same,Selectivity,C. difficile; [25],64
same,Selectivity,C. difficile; Table 8,64
same,MIC,Lactobacillus gasseri,> 16 µg/mL
same,MIC,Bacteroides fragilis,8 µg/mL
same,MIC,S. aureus ATCC29213,64 µg/mL
same,IC50,HeLa cells,93.3 ± 1.7 µg/mL
same,MIC,"MRSA (NRS70, NRS119); [27]",64 µg/mL
same,MIC,E. faecium NCTC7171,64 µg/mL
same,MIC,Bifidobacterium longum,16 µg/mL
same,MIC,Eubacterium sp.,8 µg/mL
same,MIC,Fusobacterium nucleatum,8 µg/mL
same,MIC,Veillonella sp. HM-49,16 µg/mL

# Reference: US20230271950A1, “ANTIBACTERIAL PICOLINAMIDE COMPOUNDS” (University of Notre Dame Du Lac, priority 2020, published 2023)
